Source: US11167012B2, “Peptide inhibition of CCR3-mediated diseases or conditions” (The Board of Trustees of the University of Illinois, priority 2015, dated 2021)
Where a SMILES comes first, the peptide text is derived from it. The star is where a group is joined. X1 = NC(=O)CCOCCOCCOCCOCCOCCOCCOCCOCCOCCOCCOCCOCCOCCOCCOCCOCCOCCOCCOCCOCCOCCOCCOCCOCCOCCOCCOCCOCCN*

Assays:
Gαi = Gαi activation, pull-down of GTP-bound Gαi in AML14.3D10-CCR3 cells; format: cell-based, human; details: 10 μM, 8 nM CCL11
Experimental: GTP-bound Gal was detected using a commercial Gαi assay kit (Abcam, Cambridge, Mass.) with modifications. Briefly, AML14.3D10-CCR3 cells were serum-starved for 16 hours before being pretreated with […] pertussis toxin for 2 hours, 10 μM R3-2-1 for 30 minutes, or with vehicle control. Pretreated cells were then stimulated with 8 nM CCL11 or medium for 1 minute. The reaction was stopped by adding ice cold PBS. Ten (10) million cells were used for each condition. Washed cells were lysed with 1× lysis buffer following manufacturer instructions. For pull-down of active Gαi, mouse anti-GTP bound Gαi antibody was conjugated to DYNABEADS Protein G (Life Technologies, Carlsbad, Calif.) for 15 minutes at room temperature. Conjugated beads were washed 3 times with Tris-buffered saline+TWEEN® polysorbate (TBST) and incubated with cell lysates for 20 minutes at room temperature. After washing with TBST, bound proteins were eluted by boiling the beads in 2×SDS buffer for 5 minutes. Eluates were resolved by SDS-PAGE and immunoblotted using a polyclonal rabbit anti-total Gαi antibody (Cell Signaling Technology).

CCR3 [1] = biological target: T1, CCR3 (Homo sapiens, UniProt P51677); experiment: NMR (13C HSQC) evaluation of binding to CCR3 membrane preparations; design: expressed in transfected cells; host or cells: 4DE4 mouse pre-B cell lymphoma line; details: 10 μM R321, 1 μM CCL11, CCR3 membrane preps 0.25 mg/ml
T1 sequence (P51677 1-355): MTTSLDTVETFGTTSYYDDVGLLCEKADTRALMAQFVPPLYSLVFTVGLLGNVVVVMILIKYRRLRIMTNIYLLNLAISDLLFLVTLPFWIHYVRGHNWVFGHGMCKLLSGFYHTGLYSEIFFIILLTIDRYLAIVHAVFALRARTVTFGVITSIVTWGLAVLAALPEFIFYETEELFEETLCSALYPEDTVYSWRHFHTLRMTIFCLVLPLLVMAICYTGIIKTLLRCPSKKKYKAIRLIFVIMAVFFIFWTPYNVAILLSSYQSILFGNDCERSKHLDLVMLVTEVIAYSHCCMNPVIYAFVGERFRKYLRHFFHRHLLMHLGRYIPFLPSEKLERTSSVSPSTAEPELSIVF
Experimental: FIG. 6A to FIG. 6E show NMR evaluation of the binding of R3-2-1 and CCL11/eotaxin-1 to CCR3 membrane preparations. ^13C HSQC spectra of ^13C-reductively methylated CCR3 membrane preps (0.25 mg/ml) were recorded with 1 μM CCL11 and 10 μM R321. […] Black arrows indicate the differences in chemical shifts.
Ligand binding to GPCR induces conformational transitions in the receptor that activate G-proteins and β-arrestin recruitment. […] Because R3-2-1 is an analog of the second transmembrane helix of CCR3, it is expected that R3-2-1 competes with the native helix 2 for binding to helices 1 and 3. Binding to helix 3 may disrupt the structure and orientation of the DRY motif in intracellular loop 2, inhibiting G-proteins.

CCR3 [2] = biological target: T1, CCR3; experiment: Chemotaxis assay (Transwell), blood eosinophils; format: cell-based; design: host or cells: AML14.3D10-CCR3 (eosinophilic myelocytic cell line, kept under G418); details: for IC90: blood eosinophils, 4 hours
Excerpt: Blood eosinophils were purified from anti-coagulated blood drawn from mild allergic asthmatic subjects. Peripheral blood was subjected to density gradient centrifugation over FICOLL-PAQUE® Plus (GE Healthcare, Pittsburgh, Pa.) media to obtain a pellet containing erythrocytes and granulocytes. After erythrocyte lysis via hypotonic shock, eosinophils were purified by negative selection using a cocktail of antibody-conjugated magnetic beads against non-eosinophils (Miltenyi Biotec, Auburn, Calif.). The eosinophils were resuspended in X-VIVO 10 without phenol red. The purity and viability of the eosinophils obtained was routinely >97% as assessed by Hema III and trypan blue staining, respectively.
Cell migration was determined using a 96-well TRANSWELL® system (Corning, Tewksbury, Mass.). Briefly, 200 μl chemoattractant or control medium was added to the lower chamber while 100 μl cells were added to the upper chamber. The two chambers were separated by a polycarbonate filter with 5 μm pores. For AML14.3D10-CCR3 cells, 2×10^5 cells/well were resuspended in RPMI-1640+0.1% BSA and allowed to migrate for 4 hours at 37° C. […] Migrated cells were counted using a Beckman QUANTA SC flow cytometer. All experiments were performed in duplicate. Checkerboard analysis was done to distinguish chemotaxis from chemokinesis.
Primary eosinophils and the stable CCR3+eosinophilic myelocytic cell line, AML14.3D10-CCR3 (Daugherty, et al. (1996) J. Exp. Med. 183:2349-2354) undergo CCR3-mediated chemotaxis induced by multiple chemokines including eotaxin/CCL11, RANTES/CCL5, MCP-4/CCL13, and MEC/CCL28 (Daugherty, et al. (1996) J. Exp. Med. 183:2349-2354; Pan, et al. (2000) J. Immunol. 165:2943-2949). […] In addition, R3-2-1 inhibits chemotaxis of both AML14.3D10-CCR3 and blood eosinophils induced by CCL11/Eotaxin-1, CCL24/Eotaxin-2, and CCL26/Eotaxin-3 in a dose-dependent fashion (Table 3).

CCR3 [3] = biological target: T1, CCR3; experiment: CCR3 surface expression and internalization by flow cytometry, AML14.3D10-CCR3 cells; format: cell-based; design: host or cells: AML14.3D10-CCR3 (eosinophilic myelocytic cell line, kept under G418)
Experimental: Error bars represent SEM. *p<0.05, compared to untreated cells; n=3.
To assess surface expression of CCR3, cells were stained using PE-conjugated anti-human CCR3 antibody (clone 5E8, BioLegend) or PE-conjugated isotype-matched control after blocking with 10% human AB serum. To determine ligand-induced CCR3 internalization, cells were incubated with various chemokines for 1 hour at 37° C., washed once in staining buffer (PBS+0.5% BSA+0.1% NaN3) before being stained as above. After antibody staining, cells were fixed in 2% paraformaldehyde and analyzed on a QUANTA SC flow cytometer (Beckman Coulter, Indianapolis, Ind.).

IC50 for inhibition of chemotaxis, in words (CCR3 [2]; CCL11-, CCL24-, CCL26-induced chemotaxis, summary of Table 3): low nanomolar range | IC90 (CCR3 [2]; chemotaxis to CCL11/Eotaxin-1 (12 nM)): 760 ± 100 nM | IC90 (CCR3 [2]; chemotaxis to CCL24/Eotaxin-2 (20 nM)): 730 ± 100 nM | IC90 (CCR3 [2]; chemotaxis to CCL26/Eotaxin-3 (100 nM)): 1100 ± 150 nM | CCR3 internalization or surface accumulation on prolonged treatment (CCR3 [3]; 1 μM for 24, 48 or 72 hour, with or without CCL11 (12 nM)): promotes CCR3 internalization
SMILES: CC[C@H](C)[C@H](NC(=O)[C@H](Cc1c[nH]c2ccccc12)NC(=O)[C@H](Cc1ccccc1)NC(=O)[C@@H]1CCCN1C(=O)[C@H](CC(C)C)NC(=O)[C@@H](NC(=O)[C@@H](NC(=O)[C@H](CC(C)C)NC(=O)[C@H](Cc1ccccc1)NC(=O)[C@H](CC(C)C)NC(=O)[C@@H](N)CC(C)C)C(C)C)[C@@H](C)O)C(=O)N[C@@H](Cc1c[nH]cn1)C(=O)N[C@@H](Cc1ccc(O)cc1)C(=O)N[C@H](C(=O)N[C@@H](CCCNC(=N)N)C(=O)NCC(=O)N[C@@H](Cc1c[nH]cn1)C(=O)N[C@@H](CC(N)=O)C(=O)N[C@@H](Cc1c[nH]c2ccccc12)C(=O)N[C@H](C(=O)N[C@@H](Cc1ccccc1)C(=O)NCC(=O)N[C@@H](Cc1c[nH]cn1)C(=O)N[C@@H](CC(=O)O)C(=O)N[C@@H](CC(=O)O)C(=O)N[C@@H](CC(=O)O)C(=O)NCCOCCOCCOCCOCCOCCOCCOCCOCCOCCOCCOCCOCCOCCOCCOCCOCCOCCOCCOCCOCCOCCOCCOCCOCCOCCOCCOCCOCCC(N)=O)C(C)C)C(C)C [Peptide R3-2-1] (H-LLFLVTLPFWIHYVRGHNWVFGHDDD-X1; N-terminus assumed)
activation of Gαi (GTP-bound form) (Gαi): inhibit the activation of Gαi | binding to CCR3 by NMR chemical shift changes (CCR3 [1]): chemical shift changes indicative of binding | inhibition of chemotaxis of blood eosinophils (CCR3 [2]; 2, 10 or 50 μM): similarly able to inhibit chemotaxis of blood eosinophils | CCL11-induced receptor internalization (CCR3 [3]; 1 μM, added concurrently with 12 nM CCL11): neither R3-2-1 (1 μM) nor R3-2-3 (1 μM) interfere with CCL11-induced receptor internalization | CCL11-induced CCR3 endocytosis (CCR3 [3]; 2 or 10 μM): does not inhibit CCL11-induced CCR3 endocytosis | surface CCR3 expression in the absence of CCR3 ligand (CCR3 [3]; AML14.3D10-CCR3 cells, significant at 1 μM): significantly decreases surface CCR3 expression
